According to US20140343324A1, “SYNTHETIC MATRIX FOR CONTROLLED CELL INGROWTH AND TISSUE REGENERATION” (Eidgenossische Technische Hochschule Zürich, priority 2001, published 2014):

Tested on: human foreskin fibroblasts (hFFs)
Assay: Three-dimensional cell invasion from hFF-fibrin clusters into PEG-based hydrogels
Details: compared with collagen type I derived GCRDGPQGIAGQDRCG
Experimental: Near-confluent cultures of human foreskin fibroblasts (hFFs) were trypsinized, centrifuged and resuspended in 2% (m/v) fibrinogen from human plasma (Fluka, Switzerland) in sterile phosphate buffered solution (PBS) to a concentration of […]. To induce gelation of the hFF-fibrinogen suspension, thrombin (Sigma T-6884, Switzerland) and Ca^++ were added to final concentrations of 2 NIH units/mL and 2.5 mM, respectively, and rapidly mixed with the cell suspension. Prior to gelation, 2 μL droplets of this cell-fibrinogen precursor were gelled on microscope slides for ca. 15 min. at 37° C. The hFF-fibrin clusters were embedded inside 25 μl PEG-based hydrogels by placing three to four clusters into precursor solution prior to gelation. Such hFF-fibrin clusters embedded inside the PEG-based hydrogels were cultured serum-containing DMEM in the 12-well tissue culture plates for up to 30 days. Cell invasion from the cluster into the synthetic gel matrix was imaged and recorded with their center plane in focus. To quantify the penetration depth of the outgrowth, the area of the original hFF-fibrin cluster was measured in the center plane, as was the area of the hFF outgrowth, defined by the tips of the hFF branches in the center plane of focus. […]

In the case of “GCRDGPQGIWGQDRCG (Ac-GCRDGPQGIWGQDRCG-NH2; cysteine pairing not given here) [synthetic MMP substrate capable of forming a hydrogel by Michael-type addition]”, the “degradation of MMP substrate in hydrogel” value is reported as “degrades significantly faster”.
